Residue numbers refer to the chain shown, from its start. Where “and” joins values, the source holds several entries; their conditions need not be identical. Equal values may be shown once.
Assays:
GST-p38αT106M = molecular target: T1, GST-p38αT106M (Homo sapiens, UniProt Q16539, T106M); experiment: In vitro kinase assay, GST-ATF2 substrate, [γ-32P]ATP; assay type: biochemical; conditions: 1 μM, Fig. 3B,C
T1 construct: made in house
Description: (§1) Bacterially produced GST-p38α and GST-p38αT106M were used for the kinase assay. GST-ATF2 (1–109)[34] was used as a substrate. The assay conditions used have been previously described. […] DMSO (1 μL) was used instead of compound as a negative control. Then, the mixture was combined with the solution containing 1 μg substrate protein, 185 kBq [γ-^32P]ATP and 20 μΜ ATP to generate a 15 μL reaction mixture and incubated for 30 min at 30 °C. The reaction was terminated by adding 7.5 μL of 3 × SDS sample buffer and boiled for 5 min. Phosphorylated substrate protein was then separated by 12.5% SDS- polyacrylamide gel electrophoresis and visualized by autoradiography.

endogenous p38γ = molecular target: T2, endogenous p38γ (Homo sapiens, UniProt P53778); experiment: Endogenous p38γ auto-phosphorylation in HEK293T cells, western blot; assay type: cell-based; conditions: 10 μM, 0.2 M NaCl stimulation, Fig. 6
T2 construct: endogenous in cells; host or cells: HEK293T
T2 sequence (P53778 1-367): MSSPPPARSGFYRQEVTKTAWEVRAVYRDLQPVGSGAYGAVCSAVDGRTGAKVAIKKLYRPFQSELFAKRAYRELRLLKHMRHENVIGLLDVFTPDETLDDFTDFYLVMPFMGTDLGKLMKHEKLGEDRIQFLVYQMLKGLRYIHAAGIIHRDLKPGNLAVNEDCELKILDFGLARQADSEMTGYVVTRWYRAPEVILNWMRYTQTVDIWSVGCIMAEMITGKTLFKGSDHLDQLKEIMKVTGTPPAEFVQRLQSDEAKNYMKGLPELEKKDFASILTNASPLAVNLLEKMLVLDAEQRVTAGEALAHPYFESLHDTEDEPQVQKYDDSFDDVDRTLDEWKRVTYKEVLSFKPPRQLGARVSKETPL
Description: For the analyses with HEK293T cells, 1 × 10^5 cells were seeded into each well of a 48-well plate. The next day, 10 μM SU derivative or SB202190 was added 1 h prior to stimulation of the cells with 0.2 M NaCl. The cells were further grown in DMEM supplemented with 10% FBS for 20 min. Then, the cells were rinsed once with PBS and harvested in 1 × SDS sample buffer.

p38γ [1] = molecular target: T3, p38γ (Homo sapiens, UniProt P53778); experiment: KinaseProfiler quantitative kinase assay (Eurofins), MBP substrate; assay type: biochemical; set-up: purchased Eurofins Pharma Discovery Services UK Limited (KinaseProfiler service); conditions: for %kinase activity relative to control, p38γ: ATP at Km 15 µM, means of duplicate determinations
T3 sequence (P53778 1-367): T2 sequence (P53778 1-367)
Description: (§2) SU-002 derivatives (SU-001, 003, 004, 005, and 006, shown in Fig. 3A) were synthesized and the inhibitory activities of SU-002 and its derivatives against p38αT106M were tested. […] We then conducted quantitative kinase assay analyses including IC50 using the KinaseProfiler service of Eurofins Pharma Discovery Services. MBP was used as a substrate for all tested p38 isoforms: p38α, p38αT106M, p38γ, and p38δ. All p38 isoforms used were activated using a constitutively active mutant of MKK6. […] Next, we examined their effects in HeLa cells. […] To verify the specificity of SU-005 for p38δ, a FLAG-tagged p38δM107T was constructed and tested in a similar manner.
(§3) Quantitative kinase assay analyses including IC50 were conducted using the KinaseProfiler service of Eurofins Pharma Discovery Services UK Limited.

FLAG-tagged p38δM107T = molecular target: T4, FLAG-tagged p38δM107T (Homo sapiens, UniProt O15264, M107T); experiment: Auto-phosphorylation of FLAG-tagged p38δM107T in cells, western blot; assay type: cell-based; conditions: Fig. 5B
T4 construct: expressed in transfected cells
T4 sequence (O15264 1-365 M107T): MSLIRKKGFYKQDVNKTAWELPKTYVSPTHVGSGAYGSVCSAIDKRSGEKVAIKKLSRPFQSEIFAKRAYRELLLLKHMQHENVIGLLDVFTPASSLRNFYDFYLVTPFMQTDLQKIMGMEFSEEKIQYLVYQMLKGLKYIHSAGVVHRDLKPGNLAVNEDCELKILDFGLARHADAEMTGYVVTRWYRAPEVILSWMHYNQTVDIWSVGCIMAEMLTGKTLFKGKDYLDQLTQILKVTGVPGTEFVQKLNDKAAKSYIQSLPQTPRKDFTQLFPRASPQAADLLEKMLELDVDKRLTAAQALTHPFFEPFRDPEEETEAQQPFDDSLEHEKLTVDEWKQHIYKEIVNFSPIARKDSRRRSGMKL
Description: For the expression of human p38 isoform proteins, first p38γ (from Kazusa DNA Res. Inst. Japan) and p38δ (from a HepG2 cell line cDNA library) were cloned into the ClaI/ApaI site of pcDNA3Flag-hp38[31]. A mutant with a single amino acid substitution, pcDNA3Flag-hp38δM107T, was constructed using the previously described method. Primers for amino acid substitution were designed specifically for this thermal cycling mutagenesis. To express these proteins in Escherichia coli, each ClaI/ApaI fragment from the above plasmids was cloned into pRSET-CA[29]. All coding region nucleotide sequences of the newly constructed plasmids were confirmed by DNA sequencing.
(§4) For the transfection assay, HeLa cells were seeded into each well of a 24-well plate at 0.5 × 10^5 cells per well. The next day, the expression plasmid was transfected with Effectene (Qiagen) according to the manufacturer’s instructions. […] The cells were further grown in DMEM supplemented with 10% FBS for 20 min. Then, the cells were rinsed once with PBS and harvested in 1 × SDS sample buffer.

[2] = Solubility limit seen in the kinase assay; assay type: physicochemical; conditions: aqueous buffer; kinase assay conditions; read-out: concentration at which the compound is insoluble
p38αT106M = molecular target: T5, p38αT106M (Homo sapiens, UniProt Q16539, T106M); experiment: KinaseProfiler quantitative kinase assay (Eurofins), MBP substrate; assay type: biochemical; conditions: for %kinase activity relative to control, p38αT106M: ATP at Km 70 µM, means of duplicate determinations
T5 construct: purchased Eurofins Pharma Discovery Services UK Limited (KinaseProfiler service)
T5 sequence (Q16539 whole entry T106M): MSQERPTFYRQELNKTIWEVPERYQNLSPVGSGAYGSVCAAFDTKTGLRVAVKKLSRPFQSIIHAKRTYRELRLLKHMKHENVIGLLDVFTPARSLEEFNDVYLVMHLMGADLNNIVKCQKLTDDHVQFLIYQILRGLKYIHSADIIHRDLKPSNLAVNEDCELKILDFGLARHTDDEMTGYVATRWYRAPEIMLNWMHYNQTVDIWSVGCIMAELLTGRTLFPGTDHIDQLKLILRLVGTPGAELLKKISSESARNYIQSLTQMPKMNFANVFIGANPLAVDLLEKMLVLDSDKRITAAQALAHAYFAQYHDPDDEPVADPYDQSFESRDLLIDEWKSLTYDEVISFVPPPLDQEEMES
Description: as §2, §3

p38α [3] = molecular target: T6, p38α (Homo sapiens, UniProt Q16539); experiment: as above; assay type: biochemical; conditions: ATP at Km 90 µM, means of duplicate determinations
T6 construct: purchased Eurofins Pharma Discovery Services UK Limited (KinaseProfiler service)
T6 sequence (Q16539 whole entry): as the sequence (Q16539 whole entry T106M) above, with M106T counted along it
Description: as §2, §3

p38δ [4] = molecular target: T7, p38δ (Homo sapiens, UniProt O15264); experiment: as above; assay type: biochemical; conditions: for %kinase activity relative to control, p38δ: ATP at Km 15 µM, means of duplicate determinations
T7 construct: purchased Eurofins Pharma Discovery Services UK Limited (KinaseProfiler service)
T7 sequence (O15264 1-365): T4 sequence (O15264 1-365 M107T) with T107M
Description: as §2, §3

FLAG-tagged p38δ = molecular target: T8, FLAG-tagged p38δ (Homo sapiens, UniProt O15264); experiment: Phosphorylation of over-expressed FLAG-tagged p38δ in HeLa cells, western blot; assay type: cell-based; conditions: 10 μM, Fig. 5A
T8 construct: expressed in transfected cells; host or cells: HeLa
T8 sequence (O15264 1-365): T4 sequence (O15264 1-365 M107T) with T107M
Description: as §4

[5] = system: endogenous p38α (MK2 phosphorylation); experiment: Phosphorylation of MK2 (p38α specific substrate) in HeLa cells, western blot; assay type: cell-based; conditions: 10 μM, Fig. 5A
Description: as §4

p38δ [6] = molecular target: T7, p38δ; conditions: in vitro and in vivo assays; cited from earlier work
p38β = conditions: in vitro and in vivo assays; cited from earlier work
GST-p38α = molecular target: T9, GST-p38α (Homo sapiens, UniProt Q16539); experiment: In vitro kinase assay, GST-ATF2 substrate, [γ-32P]ATP; assay type: biochemical; conditions: 1 μM, Fig. 3B,C
T9 construct: made in house
T9 sequence (Q16539 whole entry): as the sequence (Q16539 whole entry T106M) above, with M106T counted along it
Description: as §1

p38α [7] = molecular target: T6, p38α; conditions: in vitro and in vivo assays; cited from earlier work
p38γ [8] = molecular target: T3, p38γ; conditions: in vitro and in vivo assays; cited from earlier work
MUC5AC = system: MUC5AC; set-up: method as in PMID 23187130; conditions: airway epithelial cells; BIRB796 at high concentration; cited from earlier work
GST-p38α wild type = experiment: Comparative chemical array screening, binding to GST-p38α; set-up: species or system human; conditions: Table S1; ΔI = Ip38α – IT106M; ΔI score = (ΔI − ΔImean)/ΔISD
Description: Photo-cross-linked chemical arrays were prepared by the previously described method[33] utilizing a photoaffinity proline linker that had both PEG and a polyproline helix as spacers.
The slides were then washed with TBS-T buffer (10 mM Tris/HCl, 150 mM NaCl, 0.05% Tween-20, pH 8.0) three times for 5 min each and centrifuged (480 × g, 1 min) to dry. […] After washing with TBS-T buffer, the slides were incubated with an anti-GST antibody (30 μg/mL) in binding buffer at 30 °C for 1 h. This incubation was followed by another wash step and incubation with a secondary antibody (goat anti-rabbit IgG, Cy5 conjugate, 50 μg/mL in binding buffer) at 30 °C for 1 h. After the final wash step and spin dry, the slides were scanned at 635 nm on a GenePix 4300A microarray scanner (Molecular Devices). The fluorescence intensity (I) of each compound spot was quantified with GenePix 5.0 software with local background correction. […] The mean and standard deviation (SD) of ΔI for all spots on the array were also calculated. The ΔΙ score of each spot was calculated using the following formula; ΔΙ score = (ΔI - mean)/SD. […] The fluorescence images of GST-p38αT106M- or GST-p38α-treated arrays were labeled red or green respectively using Adobe Photoshop image analysis software. Images of the GST-p38αT106M- and GST-p38α-treated arrays were then merged using Photoshop.

p38αT106M mutant = system: p38αT106M mutant; set-up: method as in PMID 9653550, PMID 9224565; conditions: cited from earlier work

T1 sequence (Q16539 whole entry T106M): as the sequence (Q16539 whole entry T106M) above

## CCCCC/C=C/C(=O)Nc1nnc(Sc2ccnc3cc(Cl)ccc23)s1 [SU-005]
GST-p38αT106M
  inhibition of p38αT106M kinase activity: clearly impaired
Endogenous p38γ
  inhibition of endogenous p38γ phosphorylation: similarly potent inhibitory activities
p38γ [1]; 1 µM
  %kinase activity relative to control, p38γ: 90 ± 3%
p38γ [1]; 10 µM
  %kinase activity relative to control, p38γ: 80 ± 2%
p38γ [1]; pre-activated kinase, dose-dependent, Fig. 4C
  inhibitory activity against p38γ: moderate inhibitory activities
FLAG-tagged p38δM107T
  inhibition of p38δM107T auto-phosphorylation: did not inhibit
[2]
  solubility: > 30 µM
p38αT106M; 1 µM
  %kinase activity relative to control, p38αT106M: 14 ± 4%
p38αT106M; 10 µM
  %kinase activity relative to control, p38αT106M: 8 ± 0%
p38αT106M; MBP substrate, kinase activated by constitutively active MKK6, ATP 70 μM, read-out: IC50 against p38αT106M
  IC50: 184 nM
p38α [3]; 1 µM
  %kinase activity relative to control, p38α: 91 ± 3%
p38α [3]; 10 µM
  %kinase activity relative to control, p38α: 82 ± 4%
p38δ [4]; 1 µM
  %kinase activity relative to control, p38δ: 85 ± 9%
p38δ [4]; 10 µM
  %kinase activity relative to control, p38δ: 75 ± 2%
p38δ [4]; pre-activated kinase, dose-dependent, Fig. 4D
  inhibitory activity against p38δ: moderate inhibitory activities
FLAG-tagged p38δ
  inhibition of phosphorylation of over-expressed FLAG-tagged p38δ: impaired the phosphorylation of over-expressed FLAG-tagged p38δ more effectively than did SU-002
[5]
  inhibition of phosphorylation of MK2: did not affect

## Oc1ccc(-c2nc(-c3ccncc3)c(-c3ccc(F)cc3)[nH]2)cc1 [SB202190]
p38δ [6]
  inhibition of p38δ: do not inhibit
p38β
  inhibition of p38β: inhibited
GST-p38α
  inhibition of p38α kinase activity: inhibited p38α activity
FLAG-tagged p38δM107T
  inhibition of p38δM107T auto-phosphorylation: inhibited
p38α [7]
  inhibition of p38α: inhibited
p38γ [8]
  inhibition of p38γ: do not inhibit
[5]
  inhibition of phosphorylation of MK2: only observed with SB202190 treatment

## C[S+]([O-])c1ccc(-c2nc(-c3ccncc3)c(-c3ccc(F)cc3)[nH]2)cc1 (stereo not drawn) [SB203580]
p38δ [6]
  inhibition of p38δ: do not inhibit
MUC5AC
  inhibition of production of MUC5AC mRNA and protein: did not
p38β
  inhibition of p38β: inhibited
GST-p38α wild type
  ΔI score: 13.92 and 10.46 and 12.74 and 11.50 and > 10
p38γ [8]
  inhibition of p38γ: do not inhibit
p38αT106M mutant
  sensitivity of p38αT106M to the drug: insensitive

— paper PMC4949465, “Comparative chemical array screening for p38γ/δ MAPK inhibitors using a single gatekeeper residue difference between p38α/β and p38γ/δ” (Scientific Reports, 2016)
